Experimental data taken from paper PMC9769502 (Microbiology Spectrum, 2022).
Read-outs that look alike come from different tables or passages of the source. No end group written: not given here.

Tests used:
[1] = test system: THP-1 macrophages; test: Cytotoxicity against THP-1 macrophages (CellTiter-Blue); format: cell-based, human
Experimental: THP-1 (human acute monocytic leukemia-derived) host macrophages were cultured in RPMI 1640 supplemented with 10% FCS and a penicillin-streptomycin antibiotic solution (10,000 U/mL penicillin, 10,000 μg/mL streptomycin) at 37°C with 5% CO2. THP-1 cells were incubated with 0.25 μM phorbol 12-myristate […] (PMA) for 48 h to differentiate into mature macrophages. Differentiated macrophages were seeded into 96-well plates at 5 × 10^6 cells/mL and incubated for 48 h in the presence of 20 μM antimicrobial peptides along with the appropriate solvent controls. Cell viability assays were conducted using CellTiter-Blue (Promega), based on resazurin reduction. After the 48-h incubation period, CellTiter-Blue reagent was added to cells for 4 h at 37°C, and fluorescence was measured (555-nm excitation/580-nm emission) using a FlexStation 3 benchtop multimode reader (Molecular Devices). Each assay was performed in triplicate. The CC50 values were calculated by nonlinear regression analysis using GraphPad Prism 9.0 for Windows.

[2] = test system: Leishmania donovani axenic amastigotes
Experimental: We utilized a previously developed high-throughput screening assay using transgenic axenic amastigotes expressing a red fluorescent protein, mCherry. Changes in mCherry fluorescence were normalized to 50 μM miltefosine in order to quantify parasite inhibition ([52]). In total, 5 scaffold 25-mer peptides and 475 synthetic 25-mer peptide variants were screened (Fig. 1). […] The assay was repeated, and the average percent parasite killing was determined.
Axenic amastigotes were differentiated as described previously ([69]).
Axenic amastigotes were differentiated as described previously ([69]); briefly, transgenic L. donovani promastigotes expressing mCherry were differentiated by pH and temperature shifts. Amastigotes were seeded into 96-well plates at 5 × 10^6 cells/mL and incubated for 48 h in the presence of decreasing drug concentrations, starting at 20 μM, along with the appropriate solvent controls. Fluorescence was monitored (587-nm excitation/610-nm emission) over 48 h using a FlexStation 3 benchtop multimode reader (Molecular Devices). […] Thus, changes in mCherry fluorescence were normalized to the 50 μM miltefosine control in order to quantify parasite inhibition. Each assay was performed in triplicate. The IC50 values were calculated by nonlinear regression analysis using GraphPad Prism 9.0 for Windows.

[3] = read-out: Axenic amastigotes Mean IC50 ± SD, L. donovani mCherry axenic amastigotes, 48 h, fluorescence normalized to 50 μM miltefosine, highest concentration 20 μM, mean of three replicates
[4] = read-out: Axenic amastigotes Mean IC50 ± SD

Sequence | THP-1 macrophage CC50 [1] | THP-1 macrophage CC50 ([1]; 48 h) | IC50 ([2]; 48 h) | IC50 [2, 3] | IC50 [2, 4]
AGKKTIRQYLKNEIKKKGRKAVIWW [Syn-safencin 82] | > 20 µM | >20 µM | 0.375 ± 0.1 µM | – | –
AGKKTIRQYLKNEIKKKGRKAVWAW [Syn-safencin-74] | < 20 µM | – | – | 3.51 µM | –
AGKKTIRQYLKNEIKKKGRKAWIAW [Syn-safencin 66] | > 20 µM | >20 µM | 3.64 ± 0.1 µM | – | –
AGKKTIRQYLKNKIKKKGRKAVWAW [Syn-safencin-76] | < 20 µM | – | – | 16.3 µM | –
AGKKTIRQYLKNKIKKKGRKAWIAW [Syn-safencin-68] | < 20 µM | – | – | 0.56 µM | –
AGKKTIRQYLKNKIKKKGRKWVIAW [Syn-safencin-60] | < 20 µM | – | – | 1.31 µM | –
AGKKTIRQYLKNKIKKKWRKAVIAW [Syn-safencin-52] | < 20 µM | – | – | 0.58 µM | –
AGKKTIRQYLKNKWKKKGRKAVIAW [Syn-safencin-44] | < 20 µM | – | – | 0.63 µM | –
AGKKTIRQYWKNKIKKKGRKAVIAW [Syn-safencin-36] | < 20 µM | – | – | 1.29 µM | –
AGRQALTKYLLEELRKRGKKWFIAW [Syn-xiamencin-36] | < 20 µM | – | – | – | 1.52 µM
AGRQALTKYLLEELRKRWKKAFIAW [Syn-xiamencin-20] | < 20 µM | – | – | 0.47 µM | –
AGRQALTLELKEYLRKRWKKAFIAW [Syn-xiamencin-19] | < 20 µM | – | – | 2.15 µM | –
AGRQALTLYLKEELRKFGKKWRIAW [Syn-xiamencin-37] | < 20 µM | – | – | – | 3.71 µM
AGRQALTLYLKEELRKFWKKARIAW [Syn-xiamencin-21] | < 20 µM | – | – | 0.59 µM | –
AGRQALTLYLKEELRKRGKKWFIAW [Syn-xiamencin-33] | < 20 µM | – | – | 2.66 µM | –
AGRQALTLYLKEELRKRWKIAFKAW [Syn-xiamencin-22] | < 20 µM | – | – | 2.21 µM | –
AGRQALWKYLLEELRKRGKKAFIAW [Syn-xiamencin-44] | < 20 µM | – | – | – | 1.18 µM
AGRQALWLYLKEELRKFGKKARIAW [Syn-xiamencin-45] | < 20 µM | – | – | – | 6.13 µM
AGRQALWLYLKEELRKRGKIAFKAW [Syn-xiamencin-46] | < 20 µM | – | – | – | 11.8 µM
AGRQWLTLELKEYLRKRGKKAFIAW [Syn-xiamencin-51] | < 20 µM | – | – | 3.66 µM | –
AGRQWLTLYLKEELRKFGKKARIAW [Syn-xiamencin-53] | < 20 µM | – | – | 14.8 µM | –
AGRQWLTLYLKEELRKRGKIAFKAW [Syn-xiamencin-54] | < 20 µM | – | – | 7.79 µM | –
AGRQWLTLYLKEELRKRGKKAFIAW [Syn-xiamencin-49] | < 20 µM | – | – | – | 9.22 µM
AGSERIAKELKKYIKKGKKWIRAAW [Syn-enterocin-64] | < 20 µM | – | – | 0.42 µM | –
AGSERIAKELKKYIKKWKKVIRAAW [Syn-enterocin-48] | < 20 µM | – | – | 1.21 µM | –

Sequence | THP-1 macrophage CC50 [1] | THP-1 macrophage CC50 ([1]; 48 h) | IC50 ([2]; 48 h) | IC50 [2, 3] | IC50 [2, 4]
AGTEKIFNRLKKWINEGKKIAKRAW [Syn-larvacin-32] | < 20 µM | – | – | 0.23 µM | –
AGTEKIFQRLKKTIQEGKKIAKRAW [Syn-larvacin-7] | below 20 μM | – | – | 5.61 µM | –
AGTEKIFQRLKKTIQEWKKIAKRAW [Syn-larvacin-47] | < 20 µM | – | – | 1.1 µM | –
AGTEKIFQRLKKWIQEGKKIAKRAW [Syn-larvacin-31] | < 20 µM | – | – | – | 3.8 µM
AGWQRLTLYLKEELRKRGKKAFIAW [Syn-xiamencin-50] | < 20 µM | – | – | – | 3.74 µM
AWANRLTKELLEYLRKFGKIARKAW [Syn-xiamencin-32] | < 20 µM | – | – | 0.89 µM | –
AWAQRLTKELLEYLRKFGKIARKAW [Syn-xiamencin-31] | < 20 µM | – | – | 4.82 µM | –
AWKETIFQRLKKKIQEKGKRATIAW [Syn-larvacin 35] | > 20 µM | >20 µM | 0.63 ± 0.14 µM | – | –
AWKETIRKYLKNEIKKKGRKAVIAW [Syn-safencin-22] | < 20 µM | – | – | 1.18 µM | –
AWKETIRQFLKKTIQEKGKRAKIAW [Syn-larvacin-37] | < 20 µM | – | – | 0.29 µM | –
AWKETIRQYLKNEIKKKWRKAVIAW [Syn-safencin-89] | < 20 µM | – | – | 1.05 µM | –
AWKETIRQYLKNKIKKKGRKAVIAW [Syn-safencin-19] | < 20 µM | – | – | 0.38 µM | –
AWKETIRQYLKNKIKKKWRKAVIAW [Syn-safencin-91] | < 20 µM | – | – | 0.6 µM | –
AWKKTIRQYLKNEIKKKGRKAVIAW [Syn-safencin-18] | < 20 µM | – | – | 7.96 µM | –
AWKKTIRQYLKNEIKKKWRKAVIAW [Syn-safencin-90] | < 20 µM | – | – | 2.6 µM | –
AWKKTIRQYLKNKIKKKWRKAVIAW [Syn-safencin-92] | < 20 µM | – | – | 0.9 µM | –
AWTEKIFNRLKKTINEGKKIAKRAW [Syn-larvacin-40] | < 20 µM | – | – | 8.35 µM | –
AWTEKIFQRLKKTIQEGKKIAKRAW [Syn-larvacin-39] | < 20 µM | – | – | 1.43 µM | –
WGKETIFQRLKKKIQEKGKRATIAW [Syn-larvacin-11] | below 20 μM | – | – | 0.66 µM | –
WGKETIRKYLKNEIKKKGRKAVIAW [Syn-safencin-14] | below 20 μM | – | – | 0.67 µM | –
WGKETIRQFLKKKIQEKGKIATRAW [Syn-larvacin 14] | > 20 µM | >20 µM | 3.89 ± 0.1 µM | – | –
WGKETIRQKLKNEIKKKGRKAVIAW [Syn-safencin-15] | below 20 μM | – | – | 1.71 µM | –
WGKETIRQYLKNKIKKKGRKAVIAW [Syn-safencin-11] | below 20 μM | – | – | 12.2 µM | –
WGKKTIRQYLKNEIKKKGRKAVIAW [Syn-safencin-10] | below 20 μM | – | – | 2.97 µM | –
WGTEKIRQFLKKKIQEKGKRATIAW [Syn-larvacin-10] | below 20 μM | – | – | 0.27 µM | –
